Experimental data published in patent US20240278014A1, “METHODS AND PHARMACEUTICAL FORMULATIONS FOR MODULATING THE PROPERTIES OF THE BLOOD LABYRINTH BARRIER” (Cochlear Limited, priority 2021, published 2024).

Legend:
[1] = guinea pig, in vivo, iv
Protocol: Fluorescein (20 mM) was administered through a cannula in the jugular vein by continuous intravenous (IV) injection at a rate of 20 μL/minute. […] Implants were placed through a cochleostomy into the basal turn of the scala tympani. Perilymph sampling began two hours after IV infusion began, and the concentration of fluorescein in the perilymph was used as a proxy for BLB permeability. Sampling in the perilymph was accomplished as follows: The cochlear apex was prepared for fluid sampling by building a hydrophobic cup of silicone adhesive around it. When the apex was perforated, the emerging fluid collected in the cup without loss into the middle ear. Ten samples were collected in sequence, with each taking 60 to 90 seconds. […] Fluorescein concentrations were compared for implanted versus non-implanted […], and from ears of non-implanted control animals.

[2] = Perilymph fluorescein as proxy for BLB permeability after cochlear implantation; type: in vivo, guinea pigs; conditions: on average; same animal; perilymph sampled two hours after start of IV infusion
Excerpt: In some embodiments, methods for assessing a more permeable than normal blood labyrinth barrier (but not treating it or preventing it from becoming more permeable) involve injecting a pharmaceutical formulation functioning as a marker into the blood stream of a recipient, measuring the amount of formulation in the perilymph as a function of time. As the barrier becomes more permeable after implantation, the formulation may be detected in greater quantities in the perilymph. In this type of experiment, the data may be normalized to the contralateral ear (without an implant), which allows data to be collected from a single subject serving as its own “control.”
We measured the time course of BLB compromise following cochlear implantation in guinea pigs to characterize the development of increasing BLB permeability relating to the BLB disruption that surgical implantation causes.
Seven days following cochlear implantation, the perilymph was sampled at 126 minutes (non-implanted) and 127 minutes (implanted) after the start of IV fluorescein infusion began (shown in solid symbols). Open symbols show the same data corrected to a sample time beginning at 120 minutes after the start of the infusion, assuming a linear rate of entry through the BLB over time. […] Each sample time represents the mean of samples 1-6 from one ear; lines represent the group (n=5) mean. […]

[3] = in vivo; cited from earlier work

| elimination half time [1] [min] | volume of calculated time course [1] [mL] | BLB permeability increase (perilymph fluorescein, implanted versus nonimplanted ear) [2] | Compound | effect on BLB [3] |
| --- | --- | --- | --- | --- |
| 11 | 183 | two- to three-fold | O=C1OC2(c3ccc(O)cc3Oc3cc(O)ccc32)c2ccccc21 [Fluorescein] | – |
| – | – | – | lipopolysaccharide [LPS] | induce systemic inflammation, compromising the BLB |
